# Test results taken from US20220162191A1, “SMALL MOLECULE MODULATORS OF IL-17” (LEO PHARMA A/S, priority 2019, published 2022).
# Biological target: T1, human IL-17AA (Homo sapiens, UniProt Q16552)
# T1 construct: host or cells: HEK (human embryonic kidney) cells
# T1 sequence (Q16552 24-155) 1: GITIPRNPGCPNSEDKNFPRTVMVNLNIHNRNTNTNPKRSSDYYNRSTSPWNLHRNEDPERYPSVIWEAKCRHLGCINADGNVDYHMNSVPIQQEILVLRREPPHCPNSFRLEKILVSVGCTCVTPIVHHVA
# T1 sequence (Q16552 24-155) 2: T1 sequence (Q16552 24-155) 1
# Assay: IL-8 release assay in human epithelial keratinocytes adult (HEKa)
# Format: cell-based
# Conditions: 3 ng/ml human IL-17AA + 10 ng/ml human TNFalpha, 68-72 h, IL-8 by HTRF, read-out: Rel EC50 L-8 release assay
# Outline: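 Adult human keratinocytes in Epilife with HKGS minus hydrocortisone, treated with compound then stimulated with final 3 ng/ml HEK-derived human IL-17AA plus 10 ng/ml TNF-alpha for 68–72 h at 37 °C; TNF-alpha alone defines 100% inhibition. Secreted IL-8 by HTRF; relative IC50 and Emax from four-parameter fits.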
row,Compound,EC50 [µM]
1,"CC(C)n1cc(-c2ccc(Cl)c(C[C@H](NC(=O)O[C@H](C)C(F)(F)F)C(=O)Nc3ccc(-c4nncn4C)cc3)c2)ccc1=O [Example 286, [(1R)-2,2,2-trifluoro-1-methyl-ethyl] N-[(1S)-1-[[2-chloro-5-(1-isopropyl-6-oxo-3-pyridyl)phenyl]methyl]-2-[4-(4-methyl-1,2,4-triazol-3-yl)anilino]-2-oxo-ethyl]carbamate]",> 1
2,"CC(C)n1cc(-c2cccc(C(c3ccccc3)C(NC(=O)c3ccnn3C)C(=O)Nc3ccc(-c4cncn4C)cc3)c2)ccc1=O (single isomer, unassigned; diastereomer 4) [Example 234, N-[1-[[3-(1-isopropyl-6-oxo-3-pyridyl)phenyl]-phenyl-methyl]-2-[4-(3-methylimidazol-4-yl)anilino]-2-oxo-ethyl]-2-methyl-pyrazole-3-carboxamide (Diastereomer 4)]",0.1 to 1
3,"COCOc1ccc(-c2ccc(Cl)c(CC(NC(=O)c3ccnn3C)C(=O)Nc3ccc(-c4nncn4C)cc3)c2)cc1C(=O)N(C)C (centres unmarked) [Example 155, N-[1-[[2-chloro-5-[3-(dimethylcarbamoyl)-4-(methoxymethoxy)phenyl]phenyl]methyl]-2-[4-(4-methyl-1,2,4-triazol-3-yl)anilino]-2-oxo-ethyl]-2-methyl-pyrazole-3-carboxamide]",> 1
4,"CC(C)N(C)c1cc(-c2ccc(Cl)c(CC(NC(=O)c3ccnn3C)C(=O)Nc3ccc(-c4cncn4C)cc3)c2)ccn1 (centres unmarked) [Example 159, N-[1-[[2-chloro-5-[2-[isopropyl(methyl)amino]-4-pyridyl]phenyl]methyl]-2-[4-(3-methylimidazol-4-yl)anilino]-2-oxo-ethyl]-2-methyl-pyrazole-3-carboxamide]",< 0.1
5,"Cc1n[nH]c(C)c1-c1ccc(NC(=O)[C@@H](NC(=O)C2(F)CC2)[C@@H]2CCCc3ccc(-c4ccnc(N5CCNCC5)c4)cc32)cc1 [Example 39, N-[(1S)-2-[4-(3,5-dimethyl-1H-pyrazol-4-yl)anilino]-2-oxo-1-[(1R)-7-(2-piperazin-1-yl-4-pyridyl)tetralin-1-yl]ethyl]-1-fluoro-cyclopropanecarboxamide]",< 0.1
6,"Cc1n[nH]c(C)c1-c1ccc(NC(=O)[C@@H](NC(=O)C2(F)CC2)[C@@H]2CCc3ccc(-c4ccc(=O)n(C(C)C)c4)cc32)cc1 [Example 7, N-[(1S)-2-[4-(3,5-dimethyl-1H-pyrazol-4-yl)anilino]-1-[(1R)-6-(1-isopropyl-6-oxo-3-pyridyl)indan-1-yl]-2-oxo-ethyl]-1-fluoro-cyclopropanecarboxamide]",< 0.1
7,"Cc1n[nH]cc1-c1ccc(NC(=O)C(NC(=O)OC2CC2)C(c2ccccc2)c2cccc(-c3ccc(=O)n(C(C)C)c3)c2)cc1 (single isomer, unassigned; diastereomer 1) [Example 242, cyclopropyl N-[1-[[3-(1-isopropyl-6-oxo-3-pyridyl)phenyl]-phenyl-methyl]-2-[4-(3-methyl-1H-pyrazol-4-yl)anilino]-2-oxo-ethyl]carbamate (Diastereomer 1)]",> 1
8,"CC(C)n1cc(-c2ccc(Cl)c(C[C@H](NC(=O)OC(C)(C)C)C(=O)Nc3ccc(-c4nncn4C)cc3)c2)ccc1=O [Example 86, tert-butyl N-[(1S)-1-[[2-chloro-5-(1-isopropyl-6-oxo-3-pyridyl)phenyl]methyl]-2-[4-(4-methyl-1,2,4-triazol-3-yl)anilino]-2-oxo-ethyl]carbamate]",> 1
9,"Cc1n[nH]c(C)c1-c1ccc(NC(=O)[C@H](Cc2cc(-c3ccc(=O)n(C(C)C)c3)ccc2Cl)NC(=O)c2ccnn2C)cc1O [Example 177, N-[(1S)-1-[[2-chloro-5-(1-isopropyl-6-oxo-3-pyridyl)phenyl]methyl]-2-[4-(3,5-dimethyl-1H-pyrazol-4-yl)-3-hydroxy-anilino]-2-oxo-ethyl]-2-methyl-pyrazole-3-carboxamide]",< 0.1
10,"Cn1cnnc1-c1ccc(NC(=O)C(Cc2cc(-c3cccc(C4CC4)c3)ccc2Cl)NC(=O)c2ccnn2C)cc1 (centres unmarked) [Example 170, N-[1-[[2-chloro-5-(3-cyclopropylphenyl)phenyl]methyl]-2-[4-(4-methyl-1,2,4-triazol-3-yl)anilino]-2-oxo-ethyl]-2-methyl-pyrazole-3-carboxamide]",0.1 to 1
11,"Cc1cnn(C)c1-c1ccc(NC(=O)[C@@H](NC(=O)C2(F)CC2)[C@H](C)c2cccc(-c3cc(N4C[C@@H]5C[C@H]4CO5)ncn3)c2)cc1 [Example 342, N-[(1S,2R)-1-[[4-(2,4-dimethylpyrazol-3-yl)phenyl]carbamoyl]-2-[3-[6-[(1S,4S)-2-oxa-5-azabicyclo[2.2.1]heptan-5-yl]pyrimidin-4-yl]phenyl]propyl]-1-fluoro-cyclopropanecarboxamide]",> 1
12,"Cc1nocc1C(=O)NC(Cc1cc(-c2cccc(C(=O)N(C)C3CC3)c2)ccc1Cl)C(=O)Nc1ccc(-c2nncn2C)cc1 (centres unmarked) [Example 107, N-[1-[[2-chloro-5-[3-[cyclopropyl(methyl)carbamoyl]phenyl]phenyl]methyl]-2-[4-(4-methyl-1,2,4-triazol-3-yl)anilino]-2-oxo-ethyl]-3-methyl-isoxazole-4-carboxamide]",0.1 to 1
13,"Cc1cnn(C)c1-c1ccc(NC(=O)[C@H](Cc2cc(-c3ccc(=O)n(C(C)C)c3)ccc2Cl)NC(=O)C2(F)CCC2)cc1 [Example 331, N-[(1S)-1-[[2-chloro-5-(1-isopropyl-6-oxo-3-pyridyl)phenyl]methyl]-2-[4-(2,4-dimethylpyrazol-3-yl)anilino]-2-oxo-ethyl]-1-fluoro-cyclobutanecarboxamide]",< 0.1
14,"Cc1n[nH]c(C)c1-c1ccc(NC(=O)[C@@H](NC(=O)C2(F)CC2)[C@@H]2CCc3ccc(-c4cc(C5CC5)cnn4)cc32)cc1 [Example 384, N-[(1S)-1-[(1R)-6-(5-cyclopropylpyridazin-3-yl)indan-1-yl]-2-[4-(3,5-dimethyl-1H-pyrazol-4-yl)anilino]-2-oxo-ethyl]-1-fluoro-cyclopropanecarboxamide]",0.1 to 1
15,"CC(C)n1cc(-c2ccc(Cl)c(CC(NC(=O)c3ccnn3C)C(=O)Nc3ccc(-c4nncn4C)cc3)c2)cc(C(F)(F)F)c1=O (centres unmarked) [Example 163, N-[1-[[2-chloro-5-[1-isopropyl-6-oxo-5-(trifluoromethyl)-3-pyridyl]phenyl]methyl]-2-[4-(4-methyl-1,2,4-triazol-3-yl)anilino]-2-oxo-ethyl]-2-methyl-pyrazole-3-carboxamide]",> 1
16,"Cc1n[nH]c(C)c1-c1ccc(NC(=O)[C@@H](NC(=O)C2(F)CC2)[C@@H]2CCCc3ccc(-c4ccc(=O)n(C(C)C)c4)cc32)cc1 [Example 27, N-[(1S)-2-[4-(3,5-dimethyl-1H-pyrazol-4-yl)anilino]-1-[(1R)-7-(1-isopropyl-6-oxo-3-pyridyl)tetralin-1-yl]-2-oxo-ethyl]-1-fluoro-cyclopropanecarboxamide]",< 0.1
17,"Cn1cnnc1-c1ccc(NC(=O)C(Cc2cc(-c3cccc(CC4CC4)c3)ccc2Cl)NC(=O)c2ccnn2C)cc1 (centres unmarked) [Example 169, N-[1-[[2-chloro-5-[3-(cyclopropylmethyl)phenyl]phenyl]methyl]-2-[4-(4-methyl-1,2,4-triazol-3-yl)anilino]-2-oxo-ethyl]-2-methyl-pyrazole-3-carboxamide]",0.1 to 1
18,"Cc1n[nH]c(C)c1-c1ccc(NC(=O)[C@@H](NC(=O)c2ccnn2C)[C@@H]2CCc3ccc(-c4ccc5c(c4)CNC5)cc32)cc1 [Example 1, N-[(1S)-2-[4-(3,5-dimethyl-1H-pyrazol-4-yl)anilino]-1-[(1R)-6-isoindolin-5-ylindan-1-yl]-2-oxo-ethyl]-2-methyl-pyrazole-3-carboxamide]",< 0.1
19,"Cc1cnn(C)c1-c1ccc(NC(=O)[C@@H](NC(=O)C2(F)CC2)[C@@H]2CCc3ccc(-c4ccnc(N5CC[C@H](O)C5)c4)cc32)cc1 [Example 359, N-[(1S)-2-[4-(2,4-dimethylpyrazol-3-yl)anilino]-1-[(1R)-6-[2-[(3S)-3-hydroxypyrrolidin-1-yl]-4-pyridyl]indan-1-yl]-2-oxo-ethyl]-1-fluoro-cyclopropanecarboxamide]",0.1 to 1
20,"CC(C)n1cc(-c2ccc(Cl)c(C[C@H](NC(=O)CC3CC3)C(=O)Nc3ccc(-c4nncn4C)cc3)c2)ccc1=O [Example 116, (2S)-3-[2-chloro-5-(1-isopropyl-6-oxo-3-pyridyl)phenyl]-2-[(2-cyclopropylacetyl)amino]-N-[4-(4-methyl-1,2,4-triazol-3-yl)phenyl]propanamide]",> 1
21,"Cc1n[nH]c(C)c1-c1ccc(NC(=O)[C@@H](NC(=O)OC2CC2)[C@@H]2CCc3ccc(-c4cc(N5C[C@@H]6C[C@H]5CO6)ncn4)cc32)cc1 [Example 374, cyclopropyl N-[(1S)-2-[4-(3,5-dimethyl-1H-pyrazol-4-yl)anilino]-1-[(1R)-6-[6-[(1S,4S)-2-oxa-5-azabicyclo[2.2.1]heptan-5-yl]pyrimidin-4-yl]indan-1-yl]-2-oxo-ethyl]carbamate]",0.1 to 1
22,"Cc1n[nH]c(C)c1-c1ccc(NC(=O)[C@H](Cc2cc(-c3cnn(C)c3C)ccc2Cl)NC(=O)C2(F)CC2)cc1 [Example 227, N-[(1S)-1-[[2-chloro-5-(1,5-dimethylpyrazol-4-yl)phenyl]methyl]-2-[4-(3,5-dimethyl-1H-pyrazol-4-yl)anilino]-2-oxo-ethyl]-1-fluoro-cyclopropanecarboxamide]",0.1 to 1
23,"Cc1n[nH]c(C)c1-c1ccc(NC(=O)[C@@H](NC(=O)c2ccnn2C)[C@@H]2CCCc3ccc(-c4ccc5c(c4)CNC5)cc32)cc1 [Example 35, N-[(1S)-2-[4-(3,5-dimethyl-1H-pyrazol-4-yl)anilino]-1-[(1R)-7-isoindolin-5-yltetralin-1-yl]-2-oxo-ethyl]-2-methyl-pyrazole-3-carboxamide]",< 0.1
